Data taken from patent US20210070748A1, “INHIBITORS OF BRUTONS TYROSINE KINASE” (Pharmacyclics LLC, priority 2015, published 2021).

Tests used:
Format in all cases: biochemical
Conditions in all cases: D-compounds panel data; 1 μM ATP
[1] = molecular target: T1, ITK (Homo sapiens, UniProt Q08881); assay: Inhibition of a panel of kinases, in vitro HotSpot kinase assay: ITK
T1 sequence (Q08881 1-620): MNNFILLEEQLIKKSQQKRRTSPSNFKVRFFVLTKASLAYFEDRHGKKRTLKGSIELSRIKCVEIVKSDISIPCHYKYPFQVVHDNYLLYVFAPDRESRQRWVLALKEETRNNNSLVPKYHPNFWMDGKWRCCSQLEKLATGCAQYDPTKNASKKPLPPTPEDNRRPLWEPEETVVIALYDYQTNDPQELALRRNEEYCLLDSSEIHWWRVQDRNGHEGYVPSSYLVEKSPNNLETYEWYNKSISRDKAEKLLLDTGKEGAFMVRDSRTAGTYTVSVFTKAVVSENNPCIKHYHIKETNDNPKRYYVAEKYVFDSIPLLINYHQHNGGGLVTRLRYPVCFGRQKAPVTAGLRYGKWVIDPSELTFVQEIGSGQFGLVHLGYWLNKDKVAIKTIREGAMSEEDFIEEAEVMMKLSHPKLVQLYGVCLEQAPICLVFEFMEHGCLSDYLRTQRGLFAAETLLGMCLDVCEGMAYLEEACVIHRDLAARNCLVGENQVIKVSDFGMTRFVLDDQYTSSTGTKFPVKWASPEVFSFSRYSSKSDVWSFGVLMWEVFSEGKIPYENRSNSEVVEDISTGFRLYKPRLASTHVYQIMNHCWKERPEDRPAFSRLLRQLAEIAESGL
Method: (§1) The degree of inhibition of a panel of kinases is determined using the in vitro HotSpot kinase assay (purified enzymes, ^33P-ATP, an appropriate substrate and 1 μM ATP).

[2] = molecular target: EGFR (Homo sapiens, UniProt P00533); assay: Inhibition of a panel of kinases, in vitro HotSpot kinase assay: EGFR
EGFR, sequence (P00533 25-1210): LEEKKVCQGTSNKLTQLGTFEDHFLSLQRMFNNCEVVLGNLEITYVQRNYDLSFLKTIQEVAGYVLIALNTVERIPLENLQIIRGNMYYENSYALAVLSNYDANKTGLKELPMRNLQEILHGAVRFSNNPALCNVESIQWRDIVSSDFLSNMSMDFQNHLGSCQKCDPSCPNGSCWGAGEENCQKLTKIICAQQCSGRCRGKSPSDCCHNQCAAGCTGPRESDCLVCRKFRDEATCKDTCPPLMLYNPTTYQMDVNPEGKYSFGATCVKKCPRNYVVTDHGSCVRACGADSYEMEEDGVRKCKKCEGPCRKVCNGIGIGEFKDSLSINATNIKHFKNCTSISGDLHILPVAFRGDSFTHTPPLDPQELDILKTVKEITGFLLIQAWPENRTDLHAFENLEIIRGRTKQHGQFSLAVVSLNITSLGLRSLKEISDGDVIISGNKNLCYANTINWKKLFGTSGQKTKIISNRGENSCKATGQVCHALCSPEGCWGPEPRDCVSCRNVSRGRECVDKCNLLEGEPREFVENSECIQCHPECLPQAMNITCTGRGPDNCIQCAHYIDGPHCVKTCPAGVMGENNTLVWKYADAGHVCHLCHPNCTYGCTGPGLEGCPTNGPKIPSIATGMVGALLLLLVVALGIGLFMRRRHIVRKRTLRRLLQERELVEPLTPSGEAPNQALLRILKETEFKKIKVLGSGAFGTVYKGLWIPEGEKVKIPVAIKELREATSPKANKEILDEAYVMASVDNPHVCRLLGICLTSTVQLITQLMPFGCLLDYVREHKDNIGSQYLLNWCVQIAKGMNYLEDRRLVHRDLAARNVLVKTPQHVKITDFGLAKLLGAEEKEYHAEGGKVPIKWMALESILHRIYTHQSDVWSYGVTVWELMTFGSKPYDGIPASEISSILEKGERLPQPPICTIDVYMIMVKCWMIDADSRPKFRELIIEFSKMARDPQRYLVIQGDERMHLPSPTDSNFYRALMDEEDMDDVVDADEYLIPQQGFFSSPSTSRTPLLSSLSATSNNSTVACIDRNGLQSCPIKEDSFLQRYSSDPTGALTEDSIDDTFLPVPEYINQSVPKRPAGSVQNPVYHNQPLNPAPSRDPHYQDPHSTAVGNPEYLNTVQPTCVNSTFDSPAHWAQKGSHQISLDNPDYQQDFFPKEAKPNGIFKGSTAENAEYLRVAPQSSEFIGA
Method: as §1

[3] = molecular target: T2, TEC (Homo sapiens, UniProt P42680); assay: Inhibition of a panel of kinases, in vitro HotSpot kinase assay: TEC
T2 sequence (P42680 1-631): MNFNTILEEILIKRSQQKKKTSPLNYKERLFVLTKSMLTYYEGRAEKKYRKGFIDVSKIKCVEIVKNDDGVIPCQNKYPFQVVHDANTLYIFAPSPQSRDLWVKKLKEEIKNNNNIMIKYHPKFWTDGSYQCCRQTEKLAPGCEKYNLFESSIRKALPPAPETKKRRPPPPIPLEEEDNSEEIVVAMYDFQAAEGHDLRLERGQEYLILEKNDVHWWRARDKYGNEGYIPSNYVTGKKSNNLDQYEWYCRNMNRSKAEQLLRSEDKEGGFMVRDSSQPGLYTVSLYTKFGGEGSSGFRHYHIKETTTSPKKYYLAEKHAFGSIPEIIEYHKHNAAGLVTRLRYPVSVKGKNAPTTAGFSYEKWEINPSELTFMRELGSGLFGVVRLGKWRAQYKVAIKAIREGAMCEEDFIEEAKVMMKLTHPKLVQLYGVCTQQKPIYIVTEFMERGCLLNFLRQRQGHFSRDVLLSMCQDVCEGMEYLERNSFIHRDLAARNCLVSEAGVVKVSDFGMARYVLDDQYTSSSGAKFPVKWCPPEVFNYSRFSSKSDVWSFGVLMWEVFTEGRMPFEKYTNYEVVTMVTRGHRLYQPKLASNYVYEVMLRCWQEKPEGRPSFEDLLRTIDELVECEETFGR
Method: as §1

Compound	IC50 [1]	IC50 [2]	IC50 [3]
C[C@@H]1[C@H](NC(=O)N(C)C2CC2)CCCN1c1cnc(C(N)=O)c(Nc2cnn(C)c2)n1 [Example D-314, 5-[(2R,3R)-3-{[cyclopropyl(methyl)carbamoyl]amino}-2-methylpiperidin-1-yl]-3-[(1-methyl-1H-pyrazol-4-yl)amino]pyrazine-2-carboxamide]	100 to 1000 nM	1 to 10 µM	10 to 100 nM
C[C@@H]1[C@H](NC(=O)c2ccc(C3CC3)cc2)CCCN1c1cnc(C(N)=O)c(Nc2ccc3c(c2)OC(F)(F)O3)n1 [Example D-315, 5-[(2R,3R)-3-(4-cyclopropylbenzamido)-2-methylpiperidin-1-yl]-3-[(2,2-difluoro-2H-1,3-benzodioxol-5-yl)amino]pyrazine-2-carboxamide]	> 10000 nM	> 10 µM	1000 to 10000 nM
